This passage reports Ki results from patent US20100076003A1, “5-OXAZOLIDIN-2-ONE SUBSTITUTED 1,3,8-TRIAZASPIRO[4.5]DECAN-4-ONE DERIVATIVES USEFUL AS ORL-1 RECEPTOR MODULATORS” (priority 2008, published 2010).

One assay addresses Mu (μ) opioid receptor (Homo sapiens, UniProt P35372). Kind of assay: Filtration binding assay, mu opioid receptor, DAMGO-3H ligand.
The target of assay [1] is Kappa (κ) opioid receptor (Homo sapiens, UniProt P41145). Kind of assay: Filtration binding assay, kappa opioid receptor, U-69,593-3H ligand.
Assay [2] concerns the target Delta (δ) opioid receptor (Homo sapiens, UniProt P41143). Kind of assay: Filtration binding assay, delta opioid receptor, DPDPE-3H ligand.

Where only a bound is given, the exact number is not on record here.

Chain of Delta (δ) opioid receptor (P41143 whole entry): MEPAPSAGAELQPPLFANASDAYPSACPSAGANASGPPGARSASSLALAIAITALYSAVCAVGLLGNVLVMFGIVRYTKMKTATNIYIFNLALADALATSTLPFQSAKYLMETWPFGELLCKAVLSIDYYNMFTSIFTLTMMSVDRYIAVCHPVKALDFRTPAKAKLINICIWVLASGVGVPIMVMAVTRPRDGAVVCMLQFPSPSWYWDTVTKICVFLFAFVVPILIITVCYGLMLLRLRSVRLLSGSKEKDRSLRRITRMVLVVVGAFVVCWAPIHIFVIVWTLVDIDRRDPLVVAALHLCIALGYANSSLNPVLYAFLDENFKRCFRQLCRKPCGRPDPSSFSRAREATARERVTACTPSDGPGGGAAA
Chain of Kappa (κ) opioid receptor (P41145 whole entry): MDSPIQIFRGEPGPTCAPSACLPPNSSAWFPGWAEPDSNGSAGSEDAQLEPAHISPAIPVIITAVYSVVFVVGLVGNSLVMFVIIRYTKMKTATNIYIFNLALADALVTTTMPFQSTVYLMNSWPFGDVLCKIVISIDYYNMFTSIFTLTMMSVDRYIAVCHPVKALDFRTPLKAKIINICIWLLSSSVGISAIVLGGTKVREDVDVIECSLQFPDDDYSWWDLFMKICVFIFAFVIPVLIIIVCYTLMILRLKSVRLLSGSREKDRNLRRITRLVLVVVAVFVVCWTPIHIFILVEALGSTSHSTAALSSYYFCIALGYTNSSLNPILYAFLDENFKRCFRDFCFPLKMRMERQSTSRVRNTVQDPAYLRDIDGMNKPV
Chain of Mu (μ) opioid receptor (P35372 whole entry): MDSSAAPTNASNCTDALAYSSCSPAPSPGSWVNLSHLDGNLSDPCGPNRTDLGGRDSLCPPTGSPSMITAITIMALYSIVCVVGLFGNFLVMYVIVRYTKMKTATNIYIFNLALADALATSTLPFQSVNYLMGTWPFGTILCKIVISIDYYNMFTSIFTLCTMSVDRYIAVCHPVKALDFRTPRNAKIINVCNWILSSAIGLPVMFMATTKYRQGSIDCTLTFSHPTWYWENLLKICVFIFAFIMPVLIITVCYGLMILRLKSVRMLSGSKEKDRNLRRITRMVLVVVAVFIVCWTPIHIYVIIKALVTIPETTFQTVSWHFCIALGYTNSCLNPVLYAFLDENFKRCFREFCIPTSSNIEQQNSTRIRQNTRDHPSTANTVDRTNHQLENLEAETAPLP

Turning to `COCCN1C[C@@H](CN2CN(c3ccc(F)cc3)C3(CCN(Cc4cccc5cccc(C)c45)CC3)C2=O)OC1=O` [Compound 5, 1-(4-Fluoro-phenyl)-3-(R)-[3-(2-methoxy-ethyl)-2-oxo-oxazolidin-5-ylmethyl]-8-(8-methyl-naphthalen-1-ylmethyl)-1,3,8-triaza-spiro[4.5]decan-4-one], the Ki (usually a dissociation constant, usually derived from enzyme kinetics or from competition with a known ligand) is 180 nM at Mu (μ) opioid receptor, 580 nM in assay [1] and greater than 5000 nM in assay [2].

Take `Cc1cccc2cccc(CN3CCC4(CC3)C(=O)N(C[C@H]3CN(C)C(=O)O3)CN4c3ccc(F)cc3)c12` [Compound 4, 1-(4-Fluoro-phenyl)-8-(8-methyl-naphthalen-1-ylmethyl)-3-(S)-(3-methyl-2-oxo-oxazolidin-5-ylmethyl)-1,3,8-triaza-spiro[4.5]decan-4-one]: the Ki at Mu (μ) opioid receptor is 360 nM; in assay [1], 120 nM; in assay [2] it was greater than 5000 nM.

For the compound `Cc1cccc2cccc(CN3CCC4(CC3)C(=O)N(C[C@H]3CNC(=O)O3)CN4c3ccc(F)cc3)c12` [Compound 2, 1-(4-Fluoro-phenyl)-8-(8-methyl-naphthalen-1-ylmethyl)-3-(R)-(2-oxo-oxazolidin-5-ylmethyl)-1,3,8-triaza-spiro[4.5]decan-4-one], the results for the Ki (at Mu (μ) opioid receptor; in assay [1]; in assay [2]) were 740 nM, 640 nM and greater than 5000 nM, respectively.
